Laboratory results as given in patent US8173695B2, “Kappa selective opioid receptor antagonist” (Eli Lilly and Company, priority 2008, dated 2012).

How the values were obtained:
P rats = test: P rat progressive ratio responding for ethanol; format: in vivo; conditions: 10 mg/kg p.o. 60 min prior to testing, p<0.05 versus vehicle
Description: This test assesses the motivation to work for access to ethanol in P rats following ethanol abstinence. This animal model simulates ethanol craving.
Female P rats (Indiana University Medical Center, Indianapolis, Ind., USA) are pair-housed in an environmentally controlled facility and maintained on a 12 h light/dark cycle (lights on at 0600 hours).
Compounds are solubilized in sterile water by the dropwise addition of 85% lactic acid, mixed freshly prior to use, and administered in a volume of 1 mL/kg. Unless otherwise stated, compounds are administered p.o. 60 min prior to the experimental session. Doses are assigned using a counterbalanced, within-subject design (n=8-11 per experiment).
In order to reduce novelty-induced avoidance of ethanol (EtOH), the water bottle on the homecage is replaced with a bottle containing 15% EtOH (v/v; Ancare, Bellmore, N.Y.) for two days prior to operant training. Throughout the rest of the experiment, rats are allowed ad libitum access to water and standard laboratory chow in the homecage.
Daily 60-min sessions are conducted in standard rat operant chambers, housed within sound-attenuating chambers (MED Associates, Inc., St. Albans, Vt., USA). The 0.5 cm diameter stainless steel bars of the floor grid of the operant chambers are positioned approximately 1.5 cm apart. Two retractable operant levers in each operant chamber are located approximately 15 cm above the grid floor and 13 cm apart. A recessed trough is located in the space between the levers, through which a dipper cup (0.1 mL capacity) is raised to deliver response-contingent ethanol (15% EtOH, v/v). Upon a reinforced response, a stimulus light is illuminated during the 4-sec dipper cup access. Operation of the stimuli and behavioral responses are controlled and recorded by personal computer for offline analysis. At the end of each session, all stimuli are turned off and levers are retracted.
Rats are trained to press a lever for EtOH reinforcement. Initially, responses on either lever are considered correct responses and are rewarded with reinforcement. […]

[1] = Brain (striatum) exposure levels after oral dosing, LC/MS/MS; format: in vivo; conditions: male, Sprague Dawley (Harlan), rat striatum
Description: Male Harlan Sprague Dawley rats are treated with the compound of Example 1A of the present invention using a 3% lactic acid/water oral formulation at doses of […], 0.3, 1, 3, 10 and 30 mg/kg. […] The increasing levels of kappa receptor occupancy are driven by roughly proportional increases in plasma and brain exposure of the compound of Example 1A of the present invention up to a dose of 30 mg/kg.
Exposure levels of the compound of Example 1A in the rat striatum following administration were determined in the same samples used to quantify the level of opioid receptor occupancy. Levels of Example 1A are detected by LC/MS/MS (API 4000, MDS Sciex) and quantified from a standard curve of Example 1A prepared in rat brain homogenate.

## Cc1cc(C)cc([C@@H]2CCCN2Cc2ccc(Oc3ccc(C(N)=O)cc3F)cc2)c1 (single isomer, unassigned) [Example 1A]
P rats
  breakpoint: reduced
  number of active lever responses: reduced
  quantity of ethanol consumed: reduced
[1]; 0.1 mg/kg, oral dose .1 mg/kg
  concentration at 5.5 h: 15.3 ng/g
[1]; 0.3 mg/kg, oral dose .3 mg/kg
  concentration at 5.5 h: 7.23 ng/g
[1]; oral dose 1 mg/kg
  concentration at 5.5 h: 19.6 ng/g
[1]; oral dose 3 mg/kg
  concentration at 5.5 h: 39.2 ng/g
[1]; oral dose 10 mg/kg
  concentration at 5.5 h: 171 ng/g
[1]; oral dose 30 mg/kg
  concentration at 5.5 h: 266 ng/g
